Test results: article PMC7724566, “Prospects for Clinical Development of Stat5 Inhibitor IST5-002: High Transcriptomic Specificity in Prostate Cancer and Low Toxicity In Vivo” (Cancers, 2020)

How the values were obtained:
C57BL/6j mice = assay: Sub-chronic toxicity study (10 days), hematology; assay type: in vivo; settings: daily i.p. 10 days, blood
Procedure: The sub-chronic toxicity study (10 days) was carried out in C57BL/6J mice (8 weeks) (stock 000664) (n = 10/dose group 5 of each sex). IST5 was administered daily (0, 10, 30 and 100 mg/kg) via i.p. injection. Vehicle (0 mg/kg) group mice received a single i.p. injection of 0.3% hydroxypropyl cellulose. Plasma samples were analyzed for aspartate aminotransferase (AST), alanine aminotransferase (ALT), sorbitol dehydrogenase (SDH), alkaline phosphatase (ALP), γ-lutamyltransferase (GGT), lactate dehydrogenase (LDH), bilirubin (TBIL), protein (TP), glucose (GLU), blood urea nitrogen (BUN), creatinine (CREAT), and electrolytes (Na, K, Cl, Ca, CO2) (Marshfield Labs, WI, USA). A detailed hematological analysis was carried out on the sub-mandibular blood samples of mice collected at the end of the protocol and analyzed for white blood cells, red blood cells, hemoglobin, lymphocyte counts, monocytes, eosinophils and granulocytes. Brain, liver, heart, kidney and spleen were harvested, weighed and fixed in 10% buffered formalin and processed for histopathological analysis. In histopathological analysis, gross morphology and ultra-structural change were assessed. The clinical chemistry parameters measured were the same as those used for the acute toxicity study.

Stat5 = Stat5 phosphorylation in CWR22Rv1 cells (IP/immunoblot); assay type: cell-based, human; settings: 4 days
Procedure: In order to evaluate whether the phosphate group of IST5 is critical for IST5 activity in cell-based assays, we compared the potency of IST5 (Figure 4A) to that of IST5-M (IST5 without the phosphate group) (Figure 4B) in inhibiting phosphorylation of Stat5 in PC and CML cells. CML (K562) cells and PC (CWR22Rv1) cells were cultured for 4 days with increasing concentrations of IST5 and IST5-M (Figure 4C,D). […] Collectively, these finding indicate that IST5 and IST5-M have similar efficacies in inhibiting phosphorylation of Stat5 in both CML and PC cells.
Figure 4 IST5 and the IST5-derivative lacking the phosphate group (IST5-M), both, inhibit Stat5 phosphorylation in CML and prostate cancer cell line with high efficacy. (A), chemical structure of IST5-002 (IST5). (B), chemical structure of IST5-M (IST5 without the phosphate group. (C), IST5 and IST5-M both inhibit Stat5 phosphorylation in CML cells (K562) with high efficacy. K562 cells were treated with IST5 and IST5-M for 4 days at the concentrations indicated. Whole cell lysates (WCL) were immunoblotted with anti-pYStat5 mAb, anti-Stat5 mAb and anti-actin mAb as loading control. (D), IST5 and IST5-M, both, decrease Stat5 phosphorylation in PC cells (CWR22Rv1). CWR22Rv1 cells were treated with increasing concentrations of IST5 and IST5-M for 4 days. Stat5 was immunoprecipitated (IP) followed by immunoblotting (WB) with anti-pYStat5 mAb and anti-Stat5 mAb. Whole cell lysates (WCL) were immunoblotted with anti-actin mAb as loading control.
Cell pellets were solubilized in the lysis buffer (10 mM Tris-HCl (pH 7.6), 5 mM EDTA, 50 mM sodium chloride, 30 mM sodium pyrophosphate, 50 mM sodium fluoride, 1 mM sodium orthovanadate, 1% Triton X-100, 1 mM phenylmethylsulfonyl fluoride, 5 µg/mL aprotinin, 1 µg/mL pepstatin A and 2 µg/mL leupeptin), and protein concentrations of clarified cell lysates were determined by a simplified Bradford method (Bio-Rad, Hercules, CA, USA). The whole cell lysates were immunoprecipitated with polyclonal antibodies (Table S1) followed by incubation with protein A-Sepharose beads (GE Healthcare, Chicago, IL, USA). The cell lysates and immunoprecipitated proteins were separated on 4–12% SDS-PAGE (Life Technologies, Brown Deer, WI, USA) and transferred electrophoretically to polyvinylidene fluoride membrane (Millipore). For immunoblotting, blocking buffer was tris-buffered saline and tween 20 (TBST, 0.15 M NaCl; 0.1% Tween 20; 50 mM Tris, pH 8.0) with 3% bovine serum albumin (BSA). The immunoreaction with the specific antibodies (Table S1) was detected by horseradish peroxidase-conjugated secondary antibodies followed by enhanced chemiluminescence (GE Healthcare).

PC cells = system: PC cells; set-up: method as in PMID 18316550, PMID 23942095, PMID 26362718, PMID 20966544, PMID 20233708; settings: cited from earlier work
[1] = system: chronic myeloid leukemia (CML) cells; set-up: method as in PMID 26026053; settings: cited from earlier work

O=P(O)(O)OCC1OC(n2cnc3c(NCc4ccccc4)ncnc32)C(O)C1O (centres unmarked) [IST5] gave an EOS (C57BL/6j mice; 10 mg/kg) of 3.88 ± 1.0%, a GRA (C57BL/6j mice; 10 mg/kg) of 25.9 ± 2.3% and an HGB (C57BL/6j mice; 10 mg/kg) of 19.8 ± 1.4 g/dL. The LYM (C57BL/6j mice; 10 mg/kg) was 67.8 ± 2.0%, the MON (C57BL/6j mice; 10 mg/kg) was 6.29 ± 0.75% and the PLT (C57BL/6j mice; 10 mg/kg) was 614 ± 119 10^3/µL. For the same molecule, the RBC (C57BL/6j mice; 10 mg/kg) was 10.59 ± 0.2 M/uL, the WBC (C57BL/6j mice; 10 mg/kg) was 4.18 ± 0.65 K/uL and the EOS (C57BL/6j mice; 30 mg/kg) was 5.29 ± 1.35%. It also gave a GRA (C57BL/6j mice; 30 mg/kg) of 29.7 ± 6.7%, an HGB (C57BL/6j mice; 30 mg/kg) of 18.2 ± 2.5 g/dL and an LYM (C57BL/6j mice; 30 mg/kg) of 63.23 ± 6.7%. For the same molecule, the MON (C57BL/6j mice; 30 mg/kg) was 7.06 ± 0.5%, the PLT (C57BL/6j mice; 30 mg/kg) was 553 ± 154 10^3/µL and the RBC (C57BL/6j mice; 30 mg/kg) was 9.61 ± 0.31 M/uL. For the same molecule, the WBC (C57BL/6j mice; 30 mg/kg) was 3.76 ± 0.55 K/uL, the “inhibition of Stat5 phosphorylation” value (Stat5; 2 µM, CWR22Rv1 cells) was 60–75% and the IC50 (Stat5; read-out: IC50, inhibition of Stat5 phosphorylation, CWR22Rv1 PC cells) was roughly 1.3 µM. The “apoptotic death of PC cells” value (PC cells) was “induce extensive apoptotic death” and the “efficacy in CML cells” value [1] was “remarkable efficacy”.
